The source of these data is patent US20230024192A1, “Citrate-Functionalized Polymeric Surfactants Based Upon Alkyl Polyglucosides” (Colonial Chemical, Inc., priority 2019, published 2023).

The subject of one series is Zein. Description: Zein Test, irritation potential of surfactants / cleansing formulations by amount of zein solubilized. Also noted: species or system corn. To be noted: anionic cleanser, FIG. 3. The procedure: Surfactants of the current invention were tested for their ability to reduce the irritation potential of cleansing formulations. We used the Zein Test [referenced in J. Surfact.
The Zein test is intended for determining the irritation potential of a surfactant or surfactant-based product. Zein, a corn protein similar to keratin present in the skin and hair, is insoluble in water unless it is denatured by an irritant. In this test, the irritant is a surfactant or surfactant-based product, and irritation potential is predicted by the amount of zein solubilized.

Series [1] in a line: Salt curves, viscosity build in cleansing formulations (SLS- or AOS-based blends). The class given is physicochemical. To be noted: incorporated into typical cleansing formulations with SLS or AOS, cocamidopropyl betaine, cocamide MEA; salt curves FIGS. 1 and 2. How it is done:
The generalized cleansing formulations are shown in Table 1, where various anionic surfactants, or blends of anionic surfactants, were added to a betaine and an alkanolamide surfactant and water. The balance of the weight in these formulas is water. […] Salts curves were generated for both sulfate-free blends based on AOS, Sodium C14-16 Olefin Sulfonate (FIG. 2), as well as sodium lauryl sulfate-based blends (FIG. 1). The salt curves in FIG. 1 are for the following: 1) Sodium Lauryl Sulfate (SLS) alone: 2) Sodium Lauryl Sulfate:Water, 2:1; 3) Sodium Lauryl Sulfate:Disodium Laurylglucosides Hydroxypropyl Citrate 2:1; and 4) Sodium Lauryl Sulfate:Disodium Laurylglucosides Hydroxypropyl Citrate, 1:1. The salt curves in FIG. 2 are for the following: 1) Sodium C14-16 Olefin Sulfonate (AOS) alone: 2) Sodium C14-16 Olefin Sulfonate:Water, 2:1; 3) Sodium C14-16 Olefin Sulfonate:Disodium Laurylglucosides Hydroxypropyl Citrate, 2:1; and 4) Sodium C14-16 Olefin Sulfonate:Disodium Laurylglucosides Hydroxypropyl Citrate, 1:1. [table] […] Some formulations can achieve desired viscosity levels without any added salt, meeting the demand for that type of claim by some shampoo manufacturers.

Consider “Disodium Laurylglucosides Hydroxypropyl Citrate”, for which the “irritation potential in cleansing formulations (Zein Test)” value with Zein was “effective at reducing irritation potential”. Also, the viscosity build entry in series [1] is “fast and high viscosity build”.
